Data published in patent US9169217B2, “Arylalkyl esters of 4-amino-6-(substituted phenyl)-picolinates and 6-amino-2-(substituted phenyl)-pyrimidinecarboxylates and their use as selective herbicides for crops” (Dow AgroSciences LLC, priority 2011, dated 2015).

Legend:
Experiment in all cases: General postemergence herbicidal activity (Example 13)
Type in all cases: in vivo
[1] = test system: Oryza sativa (Rice); conditions: post-emergent spray, 70 g ai/ha, 14 DAA; crop (rice)
Description: (§1) Seeds or nutlets of the desired test plant species were planted in Sun Gro Metro-Mix® 360 planting mixture, which typically has a pH of 6.0 to 6.8 and an organic matter content of about 30 percent, in plastic pots with a surface area of 84.6 square centimeters (cm^2). When required to ensure good germination and healthy plants, a fungicide treatment and/or other chemical or physical treatment was applied. The plants were grown for 7-31 days (d) in a greenhouse with an approximate 15 hour (h) photoperiod which was maintained at about 23-29° C. during the day and 22-28° C. during the night. Nutrients and water were added on a regular basis and supplemental lighting was provided with overhead metal halide 1000-Watt lamps as necessary. The plants were employed for testing when they reached the first or second true leaf stage.
(§2) Treatments consisted of esters of compounds 33 and 39 and F and G. Compound F is methyl 6-amino-2-(4-chloro-2-fluoro-3-methoxyphenyl)-5-methoxypyrimidine-4-carboxylate; and compound G is methyl 4-amino-3-chloro-6-(4-chloro-2-fluoro-3-methoxyphenyl)picolinate. A weighed amount, determined by the highest rate to be tested, of each test compound was placed in a 25 mL glass vial and was dissolved in 4 mL of a 97:3 v/v (volume/volume) mixture of acetone and dimethyl sulfoxide (DMSO) to obtain concentrated stock solutions. […] The concentrated stock solutions obtained were diluted with 20 mL of an aqueous mixture containing acetone, water, isopropyl alcohol, DMSO, Atplus 411F crop oil concentrate, and Triton® X-155 surfactant in a 48.5:39:10:1.5:1.0:0.02 v/v ratio to obtain spray solutions containing the highest application rates. Additional application rates were obtained by serial dilution of 12 mL of the high rate solution into a solution containing 2 mL of a 97:3 v/v (volume/volume) mixture of acetone and DMSO and 10 mL of an aqueous mixture containing acetone, water, isopropyl alcohol, DMSO, Atplus 411F crop oil concentrate, and Triton® X-155 surfactant in a 48.5:39:10:1.5:1.0:0.02 v/v ratio to obtain ½×, ¼×, ⅛× and 1/16× rates of the high rate. Compound requirements are based upon a 12 mL application volume at a rate of 187 liters per hectare (L/ha). Formulated compounds were applied to the plant material with an overhead Mandel track sprayer equipped with 8002E nozzles calibrated to deliver 187 L/ha over an application area of 0.503 square meters (m^2) at a spray height of 18 inches (43 cm) above the average plant canopy height. Control plants were sprayed in the same manner with the solvent blank.
(§3) The treated plants and control plants were placed in a greenhouse as described above and watered by sub-irrigation to prevent wash-off of the test compounds. After 14 d, the condition of the test plants as compared with that of the untreated plants was determined visually and scored on a scale of 0 to 100 percent where 0 corresponds to no injury and 100 corresponds to complete kill.

[2] = test system: Stellaria media (Chickweed, common); conditions: post-emergent spray, 70 g ai/ha, 14 DAA
Description: as §1, §2, §3

[3] = test system: Triticum aestivum (Wheat, spring); conditions: post-emergent spray, 70 g ai/ha, 14 DAA; crop (spring wheat)
Description: as §1, §2, §3

[4] = test system: Viola tricolor (Pansy, wild); conditions: post-emergent spray, 70 g ai/ha, 14 DAA
Description: as §1, §2, §3

## COC(=O)c1nc(-c2ccc(Cl)c(OC)c2F)nc(N)c1OC [Compound F, methyl 6-amino-2-(4-chloro-2-fluoro-3-methoxyphenyl)-5-methoxypyrimidine-4-carboxylate, reference compound]
[1]
  Visual Injury (%) ORYSA: 75%
[2]
  Visual Injury (%) STEME: 90%
[3]
  Visual Injury (%) TRZAS: 70%
[4]
  Visual Injury (%) VIOTR: 80%
